# Entries after “also recorded” stand apart in the source; their conditions may differ.
# Assays:
# [1] = system: TGF-β1; settings: TSP-1 knockout mouse; cited from earlier work
# [2] = system: binding of TSP-1 to macrophages; test: cell adhesion assay: macrophage adhesion to TSP-1-coated wells, competition by peptides; assay type: cell-based, murine; settings: wells pre-plated with TSP-1 (40 microg./ml); cells mixed with peptide (0.01M) for 30 minutes
# Experimental: For the peptide experiment, the cells were mixed in suspension with respective peptide (0.01M) for 30 minutes prior to being introduced to TSP-1 wells.
# TSP-1 has multiple potential binding sites for binding macrophages including CD44, IAP, and CD36 (FIG. 1). However there has been no previously established β2-integrin binding motif described in TSP-1. A prior-study using phage sequence assays has reported that the peptide motif D(D/E)(G/L)W (SEQ ID NO: 7) competes with pro-MMP-9 binding to β2-integrin [40]. Through a sequence search of the complete TSP-1 peptide sequence we have determined that TSP-1 has two such putative β2 integrin binding sites: one in TSR-1-(DDGW (SEQ ID NO: 3), a perfect consensus) and another in TSR-2 (DGGW SEQ ID NO: 3), a close consensus with substitution in position 2) as shown in FIG. 2. We have used cell adhesion assay to assess binding of TSP-1 to macrophages (FIG. 6). Using this assay we have been able to show the impact of the D-Xaa-G-W (SEQ ID NO: 5) motif in TSP-1 adhesion to macrophages.
# [3] = system: MMP-9; test: transient transfection of RAW macrophage cells, active MMP-9/total MMP-9 ELISA; assay type: cell-based, mouse; settings: RAW cells transiently transfected with TSP-1 or TSP-1 mutant; for mutants: fate of the TSP-1 effect
# Description: (§1) (A) There are two putative β2 integrin binding domain in TSR-1 and TSR-2. Note that these two binding domains are adjacent (and overlap by one amino acid) the two binding domains for TGF-β1. We have mutated the two DxGW motifs as shown in the box. […] This effect is abolished by TSP mutants: DM and less so by Mut1. […] This affect is abolished with both TSP-1 mutants Mut1 and Mut2. In summary the DxGW motif in TSR-1 and TSR-2 appear to mediate the effects on of TSP-1 on TGF-β1 activation and MMP-9 inhibition in this cell assay system.
# We have shown TSP-1 binding, to macrophages through the same motif and we postulate one potential mechanism for TSP-1 inhibition, of MMP-9 activity may involve displacement of pro-MMP-9 from cell surface (FIG. 7) by competition for binding. To test this hypothesis we generated various mutants of TSP-1 involving either or both potential β2-intergin binding motif in TSP-1 (FIG. 2). […] This effect was reversed by mutation of the TSR-1 motif but less so with mutation of the TSR-2 motif.
# [4] = system: TGF-β1; test: transient transfection of RAW macrophage cells, luciferase induction via TGF-β1 promoter responsive element; assay type: cell-based, mouse; settings: RAW cells transiently transfected with TSP-1 or TSP-1 mutant; cell lysate luciferase; for mutants: fate of the TSP-1 effect
# Description: as §1
# Furthermore, using our mutants we have observed that WSPW (SEQ ID NO: 9) motif in TSR-2 is primarily responsible for TGF-β1 activation by TSP-1.
# [5] = system: MMP-9; test: synthetic peptide in tissue culture: inhibition of MMP-9 activation; assay type: cell-based
# Description: (§2) As such we have identified the two active sites in TSP-1 important for both (1) decreasing MMP-9 activity (2) and activating TGF-β1. Using this knowledge, many peptides having plaque stabilizing properties can be designed and synthesized. We designed and synthesized a representative synthetic sequence combining these two active sites: KRFKQDDGWSPWSEW (SEQ ID NO: 10).
# [6] = system: atherosclerotic plaque; test: peptide infusion (alzet pump) in TSP−/−ApoE−/− mice, atherosclerotic lesion composition; assay type: in vivo, mouse
# Description: Generally, “stabilized plaque” is evidenced by limited inflammation at the site of the lesion and/or significant fibrosis within the plaque. These features may be observed by a comparison a TSP-1 deficient control system such as the TSP−/− mice described above. Generally, stabilized plaque may be identified by a comparison of fibrosis and inflammation in treated and untreated animals. The balance between fibrosis and inflammation within the plaque has been a well accepted surrogate marker for propensity of plaque to rupture in multiple different animal models.
# [7] = system: atherosclerotic plaque; test: peptide infusion in apoE−/− mice, atherosclerotic plaque; assay type: in vivo, mouse
# [8] = biological target: T1, TGF-β1 (Mus musculus, UniProt P04202); test: synthetic peptide in tissue culture: TGF-β1 activation; assay type: cell-based
# T1 construct: endogenous in cells; host or cells: Tissue culture
# T1 sequence (P04202 30-278 limits assumed): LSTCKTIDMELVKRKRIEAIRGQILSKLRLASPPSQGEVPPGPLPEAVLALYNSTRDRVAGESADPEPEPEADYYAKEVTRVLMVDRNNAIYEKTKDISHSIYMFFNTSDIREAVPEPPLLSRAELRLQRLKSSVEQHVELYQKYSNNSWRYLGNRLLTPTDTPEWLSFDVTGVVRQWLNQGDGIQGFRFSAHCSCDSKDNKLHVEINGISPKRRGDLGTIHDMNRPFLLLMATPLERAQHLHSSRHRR
# Description: as §2
# [9] = 8-25 μg per day for 5 weeks, versus untreated TSP−/− mice
substance,measurement,setting,value
KRFK,rescue of TSP-1 knockout phenotype (localized alveolar inflammation and chronic pneumonia),[1],rescues this phenotype
DDGA (DGGW),interference with macrophage adhesion to TSP-1,[2],lack of interference
"TSP-1: matricellular protein thrombospondin-1, a trimer with a chain molecular mass of 150 kda","MMP-9 activity (active MMP-9/total MMP-9), conversion of pro-MMP-9 to the active form",[3],decreases MMP-9 activity; also recorded: decreased conversion of pro-MPP-9 to the active form
same,TGF-β1 activity,[4],increases TGF-β1 activity; also recorded: activates TGF-β1
KRFKQDDGWSPWSEW,ability to inhibit activation of MMP-9,[5],inhibit activation of MMP-9
same,inflammation (macrophages) in the intimal lesion,[6]; [9],decreased inflammation (macrophages) in the intimal lesion
same,lipid deposition within the intimal lesions,[6]; [9],decreased lipid deposition within the intimal lesions
same,matrix (collagen and elastin) deposition within the lesion,[6]; [9],increased matrix (as measured by collagen and elastin) deposition within the lesion
same,"rescue of the phenotype of TSP−/−ApoE−/− mice (decrease macrophages, increase matrix within the lesion)","[6]; alzet infusion pump, 8-25 μg per day for 5 weeks",sufficient to rescue the phenotype
same,plaque stabilizing activity,[6]; mouse model of atherosclerosis,active in stabilizing plaque
same,plaque stabilization in presence of endogenous TSP-1,[7],beneficial effect
same,ability to activate TGF-β1,[8],activate TGF-β1
ADGW,interference with macrophage adhesion to TSP-1,[2],partial interference
DDGW,interference with macrophage adhesion to TSP-1,[2],sufficient to inhibit cell adhesion to TSP-1

# — US8546323B2, “Thrombospondin-1 derived peptides and treatment methods” (priority 2005, dated 2013)
